As usually defined, the IC50 is the midpoint of a concentration-inhibition curve. Lower therefore signals greater potency.

24 molecules from BindingDB's records for doi:10.1016/j.bmcl.2009.09.123 (Genomics Institute of The Novartis Research Foundation, 2009) can be followed below.

A short description of experiment [1]: Inhibition of Tel-fused LYN expressed in mouse BAF3 cells.
Experiment [2] is described as follows: Inhibition of Tel-fused KDR expressed in mouse BAF3 cells.
Experiment [3] in a line: Inhibition of Tel-fused LCK expressed in mouse BAF3 cells.
The nature of experiment [4]: Inhibition of Tel-fused SRC expressed in mouse BAF3 cells.

Some results are limits rather than exact numbers.

As to `CCN(CC)CCCCNc1cc(-n2c(Nc3cc(C(=O)Nc4cccc(C(F)(F)F)c4)ccc3C)nc3ccccc32)ncn1` [3-(1-(6-(4-(diethylamino)butylamino)pyrimidin-4-yl)-1H-benzo[d]imidazol-2-ylamino)-4-methyl-N-(3-(trifluoromethyl)phenyl)benzamide], the IC50 in experiment [1] was 140 nM; in experiment [2], 243 nM; in experiment [3] it was 52 nM.
As to `Cc1ccc(NC(=O)c2cccc(Cl)c2)cc1Nc1nc2ccccc2n1-c1cc(N)ncn1` [N-(3-(1-(6-aminopyrimidin-4-yl)-1H-benzo[d]imidazol-2-ylamino)-4-methylphenyl)-3-chlorobenzamide], the IC50 came to 650 nM in experiment [4], 576 nM in experiment [2] and 84 nM in experiment [3].
Turning to `CCN(CC)CCCCNc1cc(-n2c(Nc3cc(NC(=O)c4cccc(C(F)(F)F)c4)ccc3C)nc3ccccc32)ncn1` [N-(3-(1-(6-(4-(diethylamino)butylamino)pyrimidin-4-yl)-1H-benzo[d]imidazol-2-ylamino)-4-methylphenyl)-3-(trifluoromethyl)benzamide], the values for the IC50 in experiment [1], in experiment [2] and in experiment [3] were 217 nM, 885 nM and 41 nM, respectively.
Molecule `Cc1ccc(NC(=O)c2ccncc2C(C)(C)C)cc1Nc1nc2ccccc2n1-c1cc(N)ncn1` [N-(3-(1-(6-aminopyrimidin-4-yl)-1H-benzo[d]imidazol-2-ylamino)-4-methylphenyl)-3-tert-butylisonicotinamide] registered an IC50 in experiment [4] of 56 nM.
With `Cc1ccc(C(=O)Nc2cccc(C(F)(F)F)c2)cc1Nc1nc2ccccc2n1-c1ncnc(N)c1C` [3-(1-(6-amino-5-methylpyrimidin-4-yl)-1H-benzo[d]imidazol-2-ylamino)-4-methyl-N-(3-(trifluoromethyl)phenyl)benzamide], the IC50 in experiment [1] was 8010 nM; in experiment [4] it was over 10000 nM; in experiment [2] it was 8180 nM; in experiment [3], 4460 nM.
For `CCN1CCN(c2cc(C(=O)Nc3ccc(C)c(Nc4nc5ccccc5n4-c4cc(N)ncn4)c3)cc(C(F)(F)F)c2)CC1` [N-(3-(1-(6-aminopyrimidin-4-yl)-1H-benzo[d]imidazol-2-ylamino)-4-methylphenyl)-3-(4-ethylpiperazin-1-yl)-5-(trifluoromethyl)benzamide] the same measures were 9 nM, 57 nM, 5 nM and 4 nM.
For `Cc1ccc(NC(=O)c2ccc(C(C)(C)C)s2)cc1Nc1nc2ccccc2n1-c1cc(N)ncn1` [N-(3-(1-(6-aminopyrimidin-4-yl)-1H-benzo[d]imidazol-2-ylamino)-4-methylphenyl)-5-tert-butylthiophene-2-carboxamide] the same measures were 5 nM, 4 nM, 4 nM and 4 nM.
The like results for `CCN(CC)CCNc1cc(-n2c(Nc3cc(NC(=O)c4cccc(C(F)(F)F)c4)ccc3C)nc3ccccc32)ncn1` [N-(3-(1-(6-(2-(diethylamino)ethylamino)pyrimidin-4-yl)-1H-benzo[d]imidazol-2-ylamino)-4-methylphenyl)-3-(trifluoromethyl)benzamide] were, in that order, 642 nM, 398 nM, 1730 nM and 418 nM.
On to `Cc1ccc(NC(=O)c2cccc(C(F)(F)F)c2)cc1Nc1nc2ccccc2n1-c1cc(N2CCOCC2)ncn1` [N-(4-methyl-3-(1-(6-morpholinopyrimidin-4-yl)-1H-benzo[d]imidazol-2-ylamino)phenyl)-3-(trifluoromethyl)benzamide], for which the IC50 in experiment [1], in experiment [4], in experiment [2] and in experiment [3] was over 10000 nM in each case.
Turning to `Cc1ccc(C(=O)Nc2cccc(Cl)c2)cc1Nc1nc2ccccc2n1-c1cc(N)ncn1` [3-(1-(6-aminopyrimidin-4-yl)-1H-benzo[d]imidazol-2-ylamino)-N-(3-chlorophenyl)-4-methylbenzamide], the IC50 in experiment [1] is over 10000 nM; in experiment [4], over 10000 nM; in experiment [2], 260 nM; in experiment [3], 76 nM.
For `Cc1ccc(NC(=O)c2cccc(C(F)(F)F)c2)cc1Nc1nc2ccccc2n1-c1cc(NCCN)ncn1` [N-(3-(1-(6-(2-aminoethylamino)pyrimidin-4-yl)-1H-benzo[d]imidazol-2-ylamino)-4-methylphenyl)-3-(trifluoromethyl)benzamide], the IC50 in experiment [1] came to 1470 nM; in experiment [4] it was 1290 nM; in experiment [2], 1750 nM; in experiment [3] it was 470 nM.
For `Cc1ccc(NC(=O)c2cccc(C(F)(F)F)c2)cc1Nc1nc2ccccc2n1-c1cc(NCCN2CCN(C)CC2)ncn1` [N-(4-methyl-3-(1-(6-(2-(4-methylpiperazin-1-yl)ethylamino)pyrimidin-4-yl)-1H-benzo[d]imidazol-2-ylamino)phenyl)-3-(trifluoromethyl)benzamide], the IC50 was determined as 204 nM in experiment [1], 918 nM in experiment [4], 605 nM in experiment [2] and 56 nM in experiment [3].
For `Cc1ccc(NC(=O)c2cc(OC3CCN(C)CC3)cc(C(F)(F)F)c2)cc1Nc1nc2ccccc2n1-c1cc(N)ncn1` [N-(3-(1-(6-aminopyrimidin-4-yl)-1H-benzo[d]imidazol-2-ylamino)-4-methylphenyl)-3-(1-methylpiperidin-4-yloxy)-5-(trifluoromethyl)benzamide] the same measures were 5 nM, 39 nM, 66 nM and 7 nM.
The like results for `CCN1CCN(Cc2ccc(C(=O)Nc3ccc(C)c(Nc4nc5ccccc5n4-c4cc(N)ncn4)c3)cc2Cl)CC1` [N-(3-(1-(6-aminopyrimidin-4-yl)-1H-benzo[d]imidazol-2-ylamino)-4-methylphenyl)-3-chloro-4-((4-ethylpiperazin-1-yl)methyl)benzamide] were, in that order, 10 nM, 47 nM, 30 nM and 5 nM.
For the molecule `Cc1ccc(NC(=O)c2cc(C(C)(C)C)nn2C)cc1Nc1nc2ccccc2n1-c1cc(N)ncn1` [N-(3-(1-(6-aminopyrimidin-4-yl)-1H-benzo[d]imidazol-2-ylamino)-4-methylphenyl)-3-tert-butyl-1-methyl-1H-pyrazole-5-carboxamide], the results for the IC50 in experiment [4], in experiment [2] and in experiment [3] were 959 nM, 451 nM and 224 nM, respectively.
`Cc1ccc(C(=O)Nc2cccc(Br)c2)cc1Nc1nc2ccccc2n1-c1cc(N)ncn1` [3-(1-(6-aminopyrimidin-4-yl)-1H-benzo[d]imidazol-2-ylamino)-N-(3-bromophenyl)-4-methylbenzamide]: the IC50 was 272 nM in experiment [1], 5380 nM in experiment [4], 464 nM in experiment [2] and 52 nM in experiment [3].
Consider `Cc1ccc(NC(=O)c2ccncc2Cl)cc1Nc1nc2ccccc2n1-c1cc(N)ncn1` [N-(3-(1-(6-aminopyrimidin-4-yl)-1H-benzo[d]imidazol-2-ylamino)-4-methylphenyl)-3-chloroisonicotinamide], for which the IC50 was 595 nM in experiment [1], over 10000 nM in experiment [4] and 890 nM in experiment [3].
Regarding `Cc1ccc(NC(=O)c2cccc(C(F)(F)F)c2)cc1Nc1nc2ccccc2n1-c1cc(NCCCN2CCN(C)CC2)ncn1` [N-(4-methyl-3-(1-(6-(3-(4-methylpiperazin-1-yl)propylamino)pyrimidin-4-yl)-1H-benzo[d]imidazol-2-ylamino)phenyl)-3-(trifluoromethyl)benzamide], the IC50 was found to be 149 nM in experiment [1], 601 nM in experiment [4], 582 nM in experiment [2] and 25 nM in experiment [3].
For `Cc1ccc(NC(=O)c2cccc(C(F)(F)F)c2)cc1Nc1nc2ccccc2n1-c1cc(NCCCCN(C)C)ncn1` [N-(3-(1-(6-(4-(dimethylamino)butylamino)pyrimidin-4-yl)-1H-benzo[d]imidazol-2-ylamino)-4-methylphenyl)-3-(trifluoromethyl)benzamide], the IC50 in experiment [1] was determined as 399 nM; in experiment [4], 1210 nM; in experiment [2], 1360 nM; in experiment [3], 108 nM.
For `Cc1ccc(NC(=O)c2cccc(C(F)(F)F)c2)cc1Nc1nc2ccccc2n1-c1cc(N)ncn1` [N-(3-(1-(6-aminopyrimidin-4-yl)-1H-benzo[d]imidazol-2-ylamino)-4-methylphenyl)-3-(trifluoromethyl)benzamide] the same measures were 14 nM, 78 nM, 36 nM and 7 nM.
Take `Cc1ccc(C(=O)Nc2cccc(OC(F)F)c2)cc1Nc1nc2ccccc2n1-c1cc(N)ncn1` [3-(1-(6-aminopyrimidin-4-yl)-1H-benzo[d]imidazol-2-ylamino)-N-(3-(difluoromethoxy)phenyl)-4-methylbenzamide]: the IC50 is 100 nM in experiment [1], over 10000 nM in experiment [4], 92 nM in experiment [2] and 47 nM in experiment [3].
Regarding `COCCNc1cc(-n2c(Nc3cc(NC(=O)c4cccc(C(F)(F)F)c4)ccc3C)nc3ccccc32)ncn1` [N-(3-(1-(6-(2-methoxyethylamino)pyrimidin-4-yl)-1H-benzo[d]imidazol-2-ylamino)-4-methylphenyl)-3-(trifluoromethyl)benzamide], the IC50 came out at 126 nM in experiment [1], 606 nM in experiment [4] and 296 nM in experiment [2].
`Cc1ccc(NC(=O)c2cccc(C(F)(F)F)c2)cc1Nc1nc2ccccc2n1-c1cc(Cl)ncn1` [N-(3-(1-(6-chloropyrimidin-4-yl)-1H-benzo[d]imidazol-2-ylamino)-4-methylphenyl)-3-(trifluoromethyl)benzamide]: the IC50 in experiment [1] worked out at 3300 nM; in experiment [2] it was 9070 nM; in experiment [3], 2700 nM.
Consider `Cc1ccc(NC(=O)c2cccc(C(F)(F)F)c2)cc1Nc1nc2ccccc2n1-c1cc(NCCC2CCCN2)ncn1` (stereo not given) [N-(4-methyl-3-(1-(6-(2-(pyrrolidin-2-yl)ethylamino)pyrimidin-4-yl)-1H-benzo[d]imidazol-2-ylamino)phenyl)-3-(trifluoromethyl)benzamide], for which the IC50 in experiment [4] was 903 nM; in experiment [2] it was 941 nM; in experiment [3], 238 nM.
